Source: ChEMBL document CHEMBL1201862, “PubChem BioAssay data set” (2004)
Structures can show the parent of a compound that is named as a salt.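 Step 1: Grow cells in 96-well plates. Step 2: Expose to compound for 48 hours at 5 concentrations. Step 3: Interpolate endpoints linearly; if unreached, use highest concentration. GI50 = concentration required for 50% inhibition of growth.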 Activity calls are given as the source filed them. Rule as the data show it: active = GI50 up to about 1.1 µM and inactive = higher.

Legend:
Experiment in all cases: NCI tumour cell line growth inhibition, 48 h
A549 = system: A549
CCRF-CEM = system: CCRF-CEM
DU-145 = system: DU-145
EKVX = system: EKVX
HCC 2998 = system: HCC 2998
K562 = system: K562
KM12 = system: KM12
MCF7 = system: MCF7
MDA-N = system: MDA-N
NCI-H522 = system: NCI-H522
NCI/ADR-RES = system: NCI/ADR-RES
OVCAR-4 = system: OVCAR-4
OVCAR-5 = system: OVCAR-5
OVCAR-8 = system: OVCAR-8
PC-3 = system: PC-3
RPMI-8226 = system: RPMI-8226
SF-268 = system: SF-268
SK-MEL-28 = system: SK-MEL-28
SK-MEL-2 = system: SK-MEL-2
SNB-75 = system: SNB-75

| Structure (SMILES) | GI50 (A549) | GI50 (CCRF-CEM) | GI50 (DU-145) | GI50 (EKVX) | GI50 (HCC 2998) | GI50 (K562) | GI50 (KM12) | GI50 (MCF7) | GI50 (MDA-N) | GI50 (NCI-H522) | GI50 (NCI/ADR-RES) | GI50 (OVCAR-4) | GI50 (OVCAR-5) | GI50 (OVCAR-8) | GI50 (PC-3) | GI50 (RPMI-8226) | GI50 (SF-268) | GI50 (SK-MEL-28) | GI50 (SK-MEL-2) | GI50 (SNB-75) |
| --- | --- | --- | --- | --- | --- | --- | --- | --- | --- | --- | --- | --- | --- | --- | --- | --- | --- | --- | --- | --- |
| CC1=COC2=C(C)C(=O)C(=O)c3c(C)ccc1c32 [MANSONONE F] | 2.92 µM (inactive) | 2.98 µM (inactive) | 6.21 µM (inactive) | 6.92 µM (inactive) | 6.27 µM (inactive) | 3.66 µM (inactive) | 3.93 µM (inactive) | 2.69 µM (inactive) | 1.78 µM (inactive) | 2.17 µM (inactive) | 2.1 µM (inactive) | 2.77 µM (inactive) | 18.2 µM (inactive) | 2.7 µM (inactive) | 2.49 µM (inactive) | 1.42 µM (inactive) | 4.44 µM (inactive) | 14.2 µM (inactive) | 5.56 µM (inactive) | 9.06 µM (inactive) |
| C=C1C(=O)O[C@H]2C/C(C)=C/CC[C@@]3(C)O[C@](C)(CC[C@@H]3I)[C@@H](I)C[C@@H]12 | 6.78 µM (inactive) | 0.592 µM (active) | 5.04 µM (inactive) | 7.16 µM (inactive) | 4.09 µM (inactive) | 1.95 µM (inactive) | 3.61 µM (inactive) | 2.25 µM (inactive) | 2.49 µM (inactive) | 3.05 µM (inactive) | 1.44 µM (inactive) | 6.14 µM (inactive) | 10.2 µM (inactive) | 1.88 µM (inactive) | 4.91 µM (inactive) | 0.959 µM (active) | 6.92 µM (inactive) | 7.01 µM (inactive) | 9.02 µM (inactive) | 6.03 µM (inactive) |
| CC1OC(OC2C(O)COC(OC3C(C)OC(OC4C(OC(=O)[C@]56CCC(C)(C)C[C@@H]5C5=CCC7[C@@]8(C)C[C@H](O)[C@H](OC9OC(CO)C(O)C(O)C9O)[C@@](C)(CO)[C@@H]8CC[C@@]7(C)[C@]5(C)CC6)OCC(O)C4O)C(O)C3OC3OCC(O)(CO)C3O)C2O)C(O)C(O)C1O (stereo not given in full) | 4.62 µM (inactive) | 18.5 µM (inactive) | 14.3 µM (inactive) | 4.16 µM (inactive) | 5.18 µM (inactive) | 28.5 µM (inactive) | 18.8 µM (inactive) | 25.5 µM (inactive) | 12.6 µM (inactive) | 16.1 µM (inactive) | 18.8 µM (inactive) | 15.7 µM (inactive) | 8.93 µM (inactive) | 18.5 µM (inactive) | 11.9 µM (inactive) | 29.2 µM (inactive) | 10.2 µM (inactive) | 3.29 µM (inactive) | 13.8 µM (inactive) | 21 µM (inactive) |
| O=S1(=O)OCc2ccccc21 | > 100 µM (inactive) | > 100 µM (inactive) | > 100 µM (inactive) | > 100 µM (inactive) | > 100 µM (inactive) | > 100 µM (inactive) | > 100 µM (inactive) | > 100 µM (inactive) | > 100 µM (inactive) | 79.8 µM (inactive) | > 100 µM (inactive) | 51.1 µM (inactive) | > 100 µM (inactive) | > 100 µM (inactive) | > 100 µM (inactive) | 61.1 µM (inactive) | > 100 µM (inactive) | > 100 µM (inactive) | > 100 µM (inactive) | 42.8 µM (inactive) |
| C[C@@H]1S[C@H](c2ccccc2F)N2Cc3ccccc3N=C12 | 39.2 µM (inactive) | 30.6 µM (inactive) | 33.7 µM (inactive) | 24.8 µM (inactive) | 20 µM (inactive) | 22.9 µM (inactive) | 27.3 µM (inactive) | 31.6 µM (inactive) | 20.7 µM (inactive) | 19.2 µM (inactive) | 24.7 µM (inactive) | 21 µM (inactive) | 28.2 µM (inactive) | 28.4 µM (inactive) | 22.9 µM (inactive) | 20.6 µM (inactive) | 28.6 µM (inactive) | 40.7 µM (inactive) | 16.8 µM (inactive) | 25.6 µM (inactive) |
| CC1=NCCN=C(C)C1/N=N/c1ccc2[nH]c(C)nc2c1 | 6.19 µM (inactive) | 4.97 µM (inactive) | 16.1 µM (inactive) | 15.8 µM (inactive) | 14 µM (inactive) | 4.83 µM (inactive) | 11.7 µM (inactive) | 5.75 µM (inactive) | 10.2 µM (inactive) | 17.4 µM (inactive) | 12 µM (inactive) | 12.4 µM (inactive) | 17.6 µM (inactive) | 12.2 µM (inactive) | 6.03 µM (inactive) | 3.11 µM (inactive) | 21.2 µM (inactive) | 10.6 µM (inactive) | 19.2 µM (inactive) | 13.2 µM (inactive) |
| CC(=O)N(C)c1ccc(Nc2cc(C)nc3ccc4nc[nH]c4c23)cc1 [ACODAZOLE HYDROCHLORIDE] | 7.59 µM (inactive) | 3.01 µM (inactive) | 5.81 µM (inactive) | 18.7 µM (inactive) | 10.3 µM (inactive) | 8.07 µM (inactive) | 7.96 µM (inactive) | 3.66 µM (inactive) | 10.5 µM (inactive) | 7.38 µM (inactive) | 156 µM (inactive) | 11.7 µM (inactive) | 12.1 µM (inactive) | 5.97 µM (inactive) | 5.09 µM (inactive) | 8.07 µM (inactive) | 8.11 µM (inactive) | 15.1 µM (inactive) | 10.8 µM (inactive) | 9.33 µM (inactive) |
| O=C(c1ccc(F)cc1)c1cccc(C(=O)c2ccc(F)cc2)n1 | 69.2 µM (inactive) | > 100 µM (inactive) | > 100 µM (inactive) | > 100 µM (inactive) | > 100 µM (inactive) | > 100 µM (inactive) | > 100 µM (inactive) | > 100 µM (inactive) | > 100 µM (inactive) | 20.3 µM (inactive) | 90.8 µM (inactive) | 71.6 µM (inactive) | > 95.3 µM (inactive) | 81.5 µM (inactive) | > 100 µM (inactive) | > 100 µM (inactive) | 24.6 µM (inactive) | > 100 µM (inactive) | 27.7 µM (inactive) | 12.6 µM (inactive) |
